Assay results: paper PMC11388068, “Amide naphthotube as a novel supramolecular sequestration agent for tetracaine and decamethonium” (Theranostics, 2024)
“And” between values parts separate entries of the source, which are not always exact repeats. Identical values can stand only once. Like-named read-outs stand apart in the source and are kept apart here.

How the values were obtained:
[1] = tested on: Balb/c mice; test: C10-induced paralysis dose in a mouse model (Rotarod); format: in vivo, Female Balb/c mice; conditions: C10 i.v., probit analysis
Procedure: Determination of C10-induced paralysis dose in a mouse model: The movement behavior was conducted with the Rotarod rotor (ZB-200). Female Balb/c mice (8-9 weeks old) weighing 18-22 g were placed on the Rotarod rotor and trained three times for 30 minutes, three times a day for three consecutive days. On day 4, Dixon's up-and-down method was employed to explore the effective dose: The initial dose of C10 to the first mouse was 0.6 mg/kg, and the standard dose ratio of C10 given to the adjacent mouse was 0.8. […] Conversely, in the case of a negative response, the following mouse received an increased dose. Tests were conducted sequentially, with changes in mobility response transitioning between positive and negative until at least 7 crossover points were reached. Probit analysis was employed to determine the ED50 (50% effective dose) and ED95 (95% effective dose) of C10, along with their corresponding CI (confidence intervals). Sequence diagrams and dose-response curves were generated using GraphPad Prism 9 software.

[2] = Plasma pharmacokinetics of C10, saline- and 1b-treated groups; format: in vivo, Male Kunming mice; conditions: for AUC(0-inf) / AUC(0-t) / Cmax / MRT last / MRT inf / half-life / Vd: plasma; for MRT last: read-out: MRT0-t; for MRT inf: read-out: MRT0-∞; for half-life: read-out: T1/2z (converted); for Vd: read-out: Vz
Procedure: Male Kunming mice (30 ± 2 g) were used in the pharmacokinetic study. Drugs were injected through the tail vein of mice. Blood, liver, and kidney tissues were collected at certain intervals after administration with 6 mice at each time point. Blood samples were placed in heparin sodium tubes and centrifuged at 6000 rpm for 20 minutes at 4^ oC to obtain plasma samples. Plasma, liver and kidney tissues were stored in a freezer at -80 °C and frozen until analysis was performed. The drug concentrations were determined by Liquid chromatography-mass spectrometry (Waters ACQUITY UPLC/Xevo TQ-S). The Masslynx 4.1 software was used to obtain the peak area of the tested compounds and internal standards in each plasma sample and calculate the standard curve formula. […] The detailed pharmacokinetics experiment procedure including materials and reagents, sample preparation, establishment and validation of analytical strategy, and LC-MS conditions are described in the Supporting Information.
1.3. A dministration and collection of plasma samples
Male Kunming mice (30±2g) were randomly divided into 5 groups, namely 1b group (dose 80mg/kg, concentration 20mg/ml), C10 group (dose 0.45mg/kg, concentration 0.125mg/ml, C10 injection for 30s followed by the same volume of normal saline), 1b combined with C10 group (C10 dose 0.45 mg/kg, C10 concentration 0.125mg/ml, C10 injection for 30s followed by 1b 6 mg/kg, 1b concentration 1.5 mg/ml). Drugs were injected through the tail vein of mice. In group 1b , eyeball blood and liver and […]
after administration, with 6 mice in each time point. In the other four groups, blood and liver and kidney tissues were collected from eyeballs at 3min, 5min, 10min, 15min, 30min, 45min and 1h after administration. Six mice were selected at each time point. Blood samples were placed in heparin sodium tubes and centrifuged at 6000rpm for 20 minutes at 4℃ to obtain plasma samples. They were stored in a refrigerator at - 80 ° C and frozen until analysis. Plasma, liver and kidney tissues were stored in a freezer at - 80 ℃ and then frozen until analysis was performed.
1.4. Preparation of Calibration Standards and Quality Control (QC) Samples 1b, C10, and IS were dissolved separately in methanol to get a stock solution concentration of 1.0 mg/mL. The stock solution of the drug to be tested was then diluted with methanol to prepare the working solution. Calibration standards and QC samples were prepared by diluting the working solution with methanol. The final concentrations of C10 were 25, 250 and 1000 ng/mL, 1b final concentration of 150, 1500 and 6000 ng/mL.The final concentration of IS is 10 ng/mL.
1.5.Mouse plasma sample preparation
The plasma to be tested was thawed at room temperature, and 100 μL of mouse plasma samples were collected in 1.5 mL EP tubes. 10 μL of IS solution (10 ng/mL) and 10 μL of methanol were mixed followed by the addition of 400 μL […] (1:1 v / v), and then the tubes were vortex mixed for 3.0 min.
After centrifugation at 13,000 rpm for 20 min at 4 °C, the supernatant was transferred to a nitrogen blower, and the solvent was dried by maintaining a steady flow of nitrogen. After drying the solvent, reconstituted with 100 μL 20% aqueous methanol

[3] = Lethal C10 poisoning mouse model (Dixon's up-and-down, probit); format: in vivo; conditions: Balb/c, mouse, in vivo, iv; C10 i.v., mice, probit analysis
Procedure: (§1) Lethal C10 poisoning mouse model: the lethal dose of i.v. administered C10 was calculated using Dixon's up-and-down method similar to TC. The initial dose of C10 was 0.9 mg/kg. Subsequent doses for each mouse were adjusted by ±0.1 mg/kg based on the outcome of the preceding animal.

[4] = tested on: mice; test: as above; format: in vivo; conditions: C10 i.v., probit analysis
Procedure: as §1

[5] = tested on: C10-induced paralysis; test: Mobility recovery assessment in a mouse model (Rotarod); format: in vivo, Female Balb/c mice; conditions: mice given C10 0.53 mg/kg, no 1b
Procedure: Mobility recovery assessment in a mouse model: the trained mice for 4 days were i.v. administered with either 4 mg/kg or 6 mg/kg of 1b, or saline, 30 seconds after administering 0.53 mg/kg C10. The mice were then placed on the rotor, and the time taken to move on the rotor for 30 seconds successfully was recorded.

[6] = tested on: AC16 cells; test: Intracellular sodium levels; format: cell-based, Human; conditions: TC 400 µM, 10 minutes
Procedure: Determination of intracellular sodium levels: 3×10^5 AC16 cells were seeded in 6-well plates with 2 mL of medium. After 12 hours, the cell medium was replaced with 400 µM TC and varying concentrations of compound 1b (ammonium salt, 0, 400, 800, and 2000 µM) or 2000 µM 1b in HBSS for 10 minutes at 37 °C. Control cells were treated with 2 mL HBSS for 10 minutes at 37 °C. After washing with PBS, cells were lysed in 300 µL of 1% Triton X-100 in saline with a 1% proteinase inhibitor cocktail from Meilunbio. The lysates were centrifuged at 12,000 ×g for 15 minutes, and the supernatant was collected for sodium level determination (7600 Modular-Hitachi-Chemistry Analyzer) and total protein content BCA assays (Epizyme Biotech). The sodium-to-protein ratio was calculated, presenting results as relative intracellular sodium content compared to the control group.

[7] = tested on: Human myocytes AC16 cell; test: CCK-8 cytotoxicity assay in AC16 cells; format: cell-based; conditions: 24 h, 24 h incubation, mixtures in a 1:1 ratio
Procedure: Cells experiments: AC16 cells were cultured in DMEM/F12 with 10% FBS, 1% penicillin, and 1% streptomycin at 37 °C with 5% CO2, and passaged every 2 days. They were seeded into 96-well plates at a density of 5-8×10^3 cells per well and cultured overnight. Then, different concentrations of TC, 1a, 1b, TC@1a and TC@1b mixture solution at various concentrations (25, 50, […], […], 200, 400, 800, and 1600 μM) were added to replace the culture medium for 24 h at 37 °C. After incubation, Cell Counting Kit-8 solution (10 μL per well) was added, and cells were incubated for 4 h at 37 °C. The optical density values at 450 nm were measured using a microplate reader to assess cell viability as a percentage of control cells. Finally, IC50 values were calculated using GraphPad Prism 8.0.2 software.
The assay and cell viability were calculated as in the cell experiment above.

[8] = tested on: AC16 cells; test: Plasma membrane potential, DiBAC4(3) flow cytometry; format: cell-based, Human; conditions: AC16 cells exposed to TC for 10 minutes
Procedure: Determination of the plasma membrane potential: AC16 cells were seeded into 12-well plates and cultured until reaching 80-90% confluence. Following removal of the culture medium, cells were exposed to HBSS (Hank's Balanced Salt Solution) containing […] TC for 10 minutes at 37 °C. Subsequently, cells were collected and incubated with 200 nM Bis-(1,3-Dibutylbarbituric Acid)-Trimethine Oxanol (DiBAC4(3), Solarbio) for 20 minutes at 37 °C. The fluorescence intensity of cells was then assessed using flow cytometry. To determine the impact of 1b (ammonium salt) on plasma membrane potential, 25×10^4 AC16 cells were co-incubated with 400 µM TC and varying concentrations of 1b (0, 400, 800, and 2000 µM) or exclusively with 1b (2000 µM) in HBSS for 10 minutes at 37 °C. Plasma membrane potential was subsequently evaluated using the aforementioned methodology.

[9] = Lethal TC poisoning mouse model (Dixon's up-and-down, probit); format: in vivo, female Balb/c mice; conditions: female, Balb/c, mouse, in vivo, iv, TC i.v., mice, probit analysis
Procedure: (§2) Lethal TC poisoning mouse model: the lethal dose of i.v. administered TC was calculated in mice (8-10 week old female Balb/c mice, weighing 20-25 g) using Dixon's up-and-down method. The initial dose of TC given to the first mouse was 9.0 mg/kg, and the standard dose ratio of TC given to the adjacent mouse was 0.9. If the animal survives, the subsequent animal receives a higher dose. If the animal dies, the following animal receives a lower dose. This process was repeated until at least seven crossover points were achieved. Probit analysis was employed to determine the LD50 (50% lethal dose) and LD95 (95% lethal dose) of TC, along with their corresponding CI (confidence intervals). Sequence diagrams and dose-response curves were generated using GraphPad Prism 9 software.

[10] = tested on: Balb/c mice; test: as above; format: in vivo, female Balb/c mice; conditions: TC i.v., probit analysis
Procedure: as §2

[11] = male, Kunming, mouse, iv, 0.45 mg/kg, C10 in plasma, Saline-treated Group
[12] = male, Kunming, mouse, iv, 0.45 mg/kg, C10 in plasma, 1b-treated Group

## C[N+](C)(C)CCCCCCCCCC[N+](C)(C)C [C10, Decamethonium]
[1]
  ED95 for inducing muscle paralysis: 0.53 mg/kg
[1]; Mus musculus, iv, read-out: ED50 for inducing muscle paralysis
  ED50: 0.37 mg/kg
[2]; C10 in plasma, 1b-treated Group
  CL: 1.12 ± 0.22 mL/h/g
[2]; C10 in plasma, Saline-treated Group
  CL: 1.54 ± 0.16 mL/h/g
[2]; [11]
  Tmax: 3 min
  AUC(0-t): 284 ± 26.4 ng·h/mL
  Cmax: 1310 ± 179 ng/mL
  MRT last: 6.6 ± 1.2 min
  MRT inf: 9.6 ± 2.4 min
  half-life: 21.6 ± 9.6 min
  Vd: 0.8 ± 0.33 L/kg
[2]; male, Kunming, mouse, iv, 0.45 mg/kg, C10, 1b-treated Group, read-out: area under the plasma concentration-time curve (AUC0-∞)
  AUC(0-inf): 414 ± 80.9 ng·h/mL
[2]; male, Kunming, mouse, iv, 0.45 mg/kg, C10, saline-treated Group, read-out: area under the plasma concentration-time curve (AUC0-∞)
  AUC(0-inf): 294 ± 28 ng·h/mL
[2]; [12]
  AUC(0-t): 406 ± 77.2 ng·h/mL
  Cmax: 1630 ± 345 ng/mL
  MRT last: 9 ± 1.2 min
  MRT inf: 10.2 ± 1.8 min
  half-life: 11.4 ± 1.2 min
  Vd: 0.3 ± 0.06 L/kg
[2]; male, Kunming, mouse, iv, 0.45 mg/kg, C10 in plasma, 1b-treated Group, read-out: AUC0-∞
  AUC(0-inf): 414 ± 80.9 ng·h/mL
[2]; male, Kunming, mouse, iv, 0.45 mg/kg, C10 in plasma, Saline-treated Group, read-out: AUC0-∞
  AUC(0-inf): 294 ± 28 ng·h/mL
[3]
  LD50: 0.69 mg/kg
[4]
  LD95: 0.86 mg/kg
[5]
  average recovery time: approximately 402.8 seconds

## CCCCNc1ccc(C(=O)OCCN(C)C)cc1 [TC, Tetracaine]
[6]
  intracellular sodium loss: approximately 20%
[7]
  IC50: 384 µM
[8]
  mean fluorescence intensity (plasma membrane potential): significant rise in mean fluorescence intensity
[9]
  LD50: 6.92 mg/kg
[10]
  LD50: 6.9 mg/kg
  LD95: 8.749 mg/kg and 8.7 mg/kg
